Assay: Anti-oxidizing property: lipid peroxide elimination rate (Determiner LPO, cumene hydroperoxide)
Format: biochemical
Conditions: concentration of 0.014%
Method: Purified water was added to 0.1 g of microbial melanin, synthetic melanin or sepia melanin and 0.1 g of sodium hydroxide to prepare 100 ml of solution, and the pH was adjusted to 7 with hydrochloric acid.
To 0.1 g of dl-α-tocopherol was added ethanol to prepare 100 ml of solution.
To 0.1 g of ascorbic acid was added purified water to prepare 100 ml of solution.
To 5.02 mg of an 80% cumene hydroperoxide (hereinafter abbreviated to CPO) solution was added purified water to prepare 100 ml of solution (264 nmol/ml).
The microbial melanin solution, the ascorbic acid solution, the dl-α-tocopherol solution, the synthetic melanin solution or the sepia melanin solution was added to a system in which CPO was reacted with a methylene blue derivative in the presence of hemoglobin as a catalyst, using Determiner LPO (product of Kyowa Medex Co., Ltd.) as a reaction reagent, thereby producing an equimolar amount of methylene blue which developed the color of the system. The anti-oxidizing property of the microbial melanin, ascorbic acid, dl-α-tocopherol, the synthetic melanin and the sepia melanin was determined on the basis of the degree of inhibition of the production of methylene blue. […]
In the equation, As indicates the absorbance of the test sample, Astd the absorbance of the standard sample, and AB the absorbance of the blank test sample. […]

Structure (SMILES)	Lipid peroxide elimination rate
Cc1c(C)c2c(c(C)c1O)CCC(C)(CCCC(C)CCCC(C)CCCC(C)C)O2 (racemic) [dl-α-tocopherol]	72.4%
O=C1O[C@H]([C@@H](O)CO)C(O)=C1O [Ascorbic acid, ascorbic acid]	97.4%
